Experimental data: ChEMBL document CHEMBL5346955, “Discovery of HPG1860, a Structurally Novel Nonbile Acid FXR Agonist Currently in Clinical Development for the Treatment of Nonalcoholic Steatohepatitis” (J Med Chem, 2023)
pEC50: −log10 of the molar value. Values after ≈ are worked out from the molar mass of the structure shown. Active and inactive are the calls of the source. The rule behind the calls is not given here.

Tests used:
Bile acid receptor [1] = target: T1, Bile acid receptor (Homo sapiens, UniProt Q96RI1); experiment: Agonist activity at GST-tagged human FXR-LBD in presence of luorescein-SRC2-2 coactivator peptide by TR-FRET assay
T1 sequence (Q96RI1 whole entry): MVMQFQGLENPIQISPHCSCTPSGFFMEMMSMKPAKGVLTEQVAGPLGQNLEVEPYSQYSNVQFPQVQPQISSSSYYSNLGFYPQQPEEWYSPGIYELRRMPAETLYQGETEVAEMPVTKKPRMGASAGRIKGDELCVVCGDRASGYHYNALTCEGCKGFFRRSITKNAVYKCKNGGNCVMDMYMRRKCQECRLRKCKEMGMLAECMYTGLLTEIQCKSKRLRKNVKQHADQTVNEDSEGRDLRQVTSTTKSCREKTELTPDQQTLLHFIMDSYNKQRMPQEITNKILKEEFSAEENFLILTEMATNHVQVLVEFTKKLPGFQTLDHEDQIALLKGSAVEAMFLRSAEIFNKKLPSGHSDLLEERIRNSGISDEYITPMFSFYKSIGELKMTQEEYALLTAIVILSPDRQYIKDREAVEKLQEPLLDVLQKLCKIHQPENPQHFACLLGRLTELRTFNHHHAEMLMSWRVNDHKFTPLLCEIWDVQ

Bile acid receptor [2] = target: T1, Bile acid receptor; experiment: Agonist activity at human GAL4-FXR-LBD expressed in HEK293T cells assessed as transcriptional activity measured after 16 to 20 hrs by luciferase reporter gene assay; assay type: cell-based
[3] = Solubility of the compound in PBS buffer at pH 7.4; assay type: physicochemical
[4] = Metabolic stability in human liver microsomes assessed as half life at 1 uM measured upto 120 mins by UPLC/MS/MS analysis; assay type: ADME, Microsome
[5] = Metabolic stability in rat liver microsomes assessed as half life at 1 uM measured upto 120 mins by UPLC/MS/MS analysis; assay type: ADME, Microsome
[6] = Metabolic stability in dog liver microsomes assessed as half life at 1 uM measured upto 120 mins by UPLC/MS/MS analysis; assay type: ADME, Canis lupus familiaris, Microsome
[7] = Metabolic stability in cynomolgus monkey liver microsomes assessed as half life at 1 uM measured upto 120 mins by UPLC/MS/MS analysis; assay type: ADME, Macaca fascicularis, Microsome
[8] = AUC (0 to t) in Balb/c mouse at 1 mg/kg, iv measured after 5 mins by LC-MS/MS analysis; assay type: ADME, organism-based; parameters: time 5 min, dose 1 mg/kg, route iv; details: in vivo
[9] = Half life in Balb/c mouse at 1 mg/kg, iv measured after 5 mins by LC-MS/MS analysis; assay type: ADME, organism-based; details: in vivo
[10] = Clearance in Balb/c mouse at 1 mg/kg, iv measured after 5 mins by LC-MS/MS analysis; assay type: ADME, organism-based; details: in vivo
[11] = Volume of distribution at steady state in Balb/c mouse at 1 mg/kg, iv measured after 5 mins by LC-MS/MS analysis; assay type: ADME, organism-based; details: in vivo, read-out: Vdss
[12] = Cmax in Balb/c mouse at 5 mg/kg, po measured after 12 hrs by LC-MS/MS analysis; assay type: ADME, organism-based; parameters: dose 5 mg/kg, time 12 hrs, route po; details: in vivo
[13] = Tmax in Balb/c mouse at 5 mg/kg, po measured after 12 hrs by LC-MS/MS analysis; assay type: ADME, organism-based; details: in vivo
[14] = AUC (0 to t) in Balb/c mouse at 5 mg/kg, po measured after 12 hrs by LC-MS/MS analysis; assay type: ADME, organism-based; parameters: dose 5 mg/kg, time 12 hrs, route po; details: in vivo
[15] = Half life in Balb/c mouse at 5 mg/kg, po measured after 12 hrs by LC-MS/MS analysis; assay type: ADME, organism-based; details: in vivo
[16] = Oral bioavailability in Balb/c mouse at 5 mg/kg measured after 12 hrs by LC-MS/MS analysis; assay type: ADME, organism-based; details: in vivo
[17] = AUC (0 to t) in Sprague-Dawley rat at 3 mg/kg, iv measured after 5 mins by LC-MS/MS analysis; assay type: ADME, organism-based; parameters: time 5 min, dose 3 mg/kg, route iv; details: in vivo
[18] = Half life in Sprague-Dawley rat at 3 mg/kg, iv measured after 5 mins by LC-MS/MS analysis; assay type: ADME, organism-based; details: in vivo
[19] = Volume of distribution at steady state in Sprague-Dawley rat at 3 mg/kg, iv measured after 5 mins by LC-MS/MS analysis; assay type: ADME, organism-based; details: in vivo
[20] = Cmax in Sprague-Dawley rat at 9 mg/kg, po measured after 12 hrs by LC-MS/MS analysis; assay type: ADME, organism-based; parameters: time 12 hrs, dose 9 mg/kg, route po; details: in vivo
[21] = Tmax in Sprague-Dawley rat at 9 mg/kg, po measured after 12 hrs by LC-MS/MS analysis; assay type: ADME, organism-based; details: in vivo
[22] = AUC (0 to t) in Sprague-Dawley rat at 9 mg/kg, po measured after 12 hrs by LC-MS/MS analysis; assay type: ADME, organism-based; parameters: dose 9 mg/kg, time 12 hrs, route po; details: in vivo
[23] = Half life in Sprague-Dawley rat at 9 mg/kg, po measured after 12 hrs by LC-MS/MS analysis; assay type: ADME, organism-based; details: in vivo
[24] = Oral bioavailability in Sprague-Dawley rat at 9 mg/kg measured after 12 hrs by LC-MS/MS analysis; assay type: ADME, organism-based; details: in vivo
[25] = AUC (0 to t) in Beagle dog at 1 mg/kg, iv measured after 5 mins by LC-MS/MS analysis; assay type: ADME, organism-based, Canis lupus familiaris; parameters: dose 1 mg/kg, time 5 min, route iv; details: in vivo
[26] = Half life in Beagle dog at 1 mg/kg, iv measured after 5 mins by LC-MS/MS analysis; assay type: ADME, organism-based, Canis lupus familiaris; details: in vivo
[27] = Clearance in Beagle dog at 1 mg/kg, iv measured after 5 mins by LC-MS/MS analysis; assay type: ADME, organism-based, Canis lupus familiaris; details: in vivo
[28] = Volume of distribution at steady state in Beagle dog at 1 mg/kg, iv measured after 5 mins by LC-MS/MS analysis; assay type: ADME, organism-based, Canis lupus familiaris; details: in vivo, read-out: Vdss
[29] = Cmax in Beagle dog at 3 mg/kg, po measured after 12 hrs by LC-MS/MS analysis; assay type: ADME, organism-based, Canis lupus familiaris; parameters: time 12 hrs, dose 3 mg/kg, route po; details: in vivo
[30] = Tmax in Beagle dog at 3 mg/kg, po measured after 12 hrs by LC-MS/MS analysis; assay type: ADME, organism-based, Canis lupus familiaris; details: in vivo
[31] = AUC (0 to t) in Beagle dog at 3 mg/kg, po measured after 12 hrs by LC-MS/MS analysis; assay type: ADME, organism-based, Canis lupus familiaris; parameters: dose 3 mg/kg, time 12 hrs, route po; details: in vivo
[32] = Half life in Beagle dog at 3 mg/kg, po measured after 12 hrs by LC-MS/MS analysis; assay type: ADME, organism-based, Canis lupus familiaris; details: in vivo
[33] = Drug metabolism in dog assessed as taurine/glycine conjugates in plasma at 50 mg/kg, po; assay type: ADME, organism-based, Canis lupus familiaris; details: in vivo
[34] = Induction of SHP gene expression in C57BL/6J mouse liver assessed as fold increase at 3 mg/kg, po measured after 1 hr by RT-qPCR analysis; assay type: functional
[35] = Induction of BSEP gene expression in C57BL/6J mouse liver assessed as fold increase at 3 mg/kg, po measured after 12 hr by RT-qPCR analysis; assay type: functional
[36] = Induction of FGF15 gene expression in C57BL/6J mouse ileum assessed as fold increase at 3 mg/kg, po measured after 4 hr by RT-qPCR analysis relative to control; assay type: functional
[37] = Induction of FGF15 gene expression in C57BL/6J mouse ileum assessed as fold increase at 3 mg/kg, po measured after 1 hr by RT-qPCR analysis relative to control; assay type: functional
[38] = Induction of SHP gene expression in C57BL/6J mouse ileum assessed as fold increase at 3 mg/kg, po measured after 4 hr by RT-qPCR analysis relative to control; assay type: functional
[39] = Toxicity in C57BL/6J mouse assessed as change in body weight at 1 to 10 mg/kg, po qd; assay type: organism-based; details: in vivo, dose 1-10 mg/kg
Mus musculus [40] = experiment: Anti-nonalcoholic steatohepatitis activity against ccl4-induced C57BL/6J mouse model assessed as decrease in ALT level in liver at 1 to 10 mg/kg, po qd treated for 28 days; assay type: functional, organism-based; details: dose 1-10 mg/kg, time 28.0 day
Mus musculus [41] = experiment: Anti-nonalcoholic steatohepatitis activity against ccl4-induced C57BL/6J mouse model assessed as decrease in AST level in liver at 1 to 10 mg/kg, po qd treated for 28 days; assay type: functional, organism-based; details: dose 1-10 mg/kg, time 28.0 day
Mus musculus [42] = experiment: Anti-nonalcoholic steatohepatitis activity against ccl4-induced C57BL/6J mouse model assessed as reduction total cholesterol in serum at 1 to 10 mg/kg, po qd treated for 28 days; assay type: functional, organism-based; details: dose 1-10 mg/kg, time 28.0 day
Mus musculus [43] = experiment: Anti-nonalcoholic steatohepatitis activity against ccl4-induced C57BL/6J mouse model assessed as improvement in NAFLD activity score at 1 to 10 mg/kg, po qd treated for 28 days; assay type: functional, organism-based; details: dose 1-10 mg/kg, time 28.0 day
Mus musculus [44] = experiment: Anti-nonalcoholic steatohepatitis activity against ccl4-induced C57BL/6J mouse model assessed as clearance of liver steatosis at 10 mg/kg, po qd treated for 28 days; assay type: functional; details: time 28 day
Mus musculus [45] = experiment: Anti-nonalcoholic steatohepatitis activity against ccl4-induced C57BL/6J mouse model assessed as improvement in liver inflammation at 1 to 10 mg/kg, po qd treated for 28 days; assay type: functional, organism-based; details: dose 1-10 mg/kg, time 28.0 day
Mus musculus [46] = experiment: Anti-nonalcoholic steatohepatitis activity against ccl4-induced C57BL/6J mouse model assessed as improvement in fibrosis at 1 to 10 mg/kg, po qd treated for 28 days; assay type: functional, organism-based; details: dose 1-10 mg/kg, time 28.0 day

## COc1cc(C(=O)O)cc2sc(N3CCN(Cc4c(-c5c(Cl)cccc5Cl)noc4C4CC4)C[C@H]3C)nc12
Bile acid receptor [1]
  pEC50: 8.30
Bile acid receptor [2]
  pEC50: 7.74
[3]
  solubility: 284 µM (≈ 163 µg/mL)
[4]
  half-life at 1 µM: 7.45 h
[5]
  half-life at 1 µM: 1.93 h
[6]
  half-life at 1 µM: 3.95 h
[7]
  half-life at 1 µM: 2.57 h
[8]
  AUC(0-t) at 5 min: 1010 ng·h/mL
[9]
  half-life: 1.6 h
[10]
  clearance: 16.5 mL/min/kg
[11]
  Vd: 0.53 L/kg
[12]
  Cmax: 3610 ng/mL
[13]
  Tmax: 0.25 h
[14]
  AUC(0-t) at 12 h: 3880 ng·h/mL
[15]
  half-life: 1.52 h
[16]
  bioavailability: 77.2%
[17]
  AUC(0-t) at 5 min: 2610 ng·h/mL
[18]
  t1/2: 1.44 h
[19]
  Vdss: 29.3 L/kg
[20]
  Cmax: 1950 ng/mL
[21]
  Tmax: 0.5 h
[22]
  AUC(0-t) at 12 h: 4120 ng·h/mL
[23]
  half-life: 2.1 h
[24]
  bioavailability: 52.1%
[25]
  AUC(0-t) at 5 min: 4590 ng·h/mL
[26]
  half-life: 4.07 h
[27]
  clearance: 3.63 mL/min/kg
[28]
  Vd: 0.823 L/kg
[29]
  Cmax: 1710 ng/mL
[30]
  Tmax: 1 h
[31]
  AUC(0-t) at 12 h: 8270 ng·h/mL
[32]
  half-life: 9.9 h
[33]
  Drug metabolism: Metabolite_Notdetected
[34]
  fold change (FC): 12
[35]
  fold change (FC): 4
[36]
  fold change (FC): 5
[37]
  fold change (FC): 7
[38]
  fold change (FC): ~30
[39]
  Activity: Non-Toxic
Mus musculus [40]
  Activity: Active
Mus musculus [41]
  Activity: Active
Mus musculus [42]
  Activity: Active
Mus musculus [43]
  Activity: Active
Mus musculus [44]
  Activity: 100%
Mus musculus [45]
  Activity: Active
Mus musculus [46]
  Activity: Active
